The source of these data is ChEMBL document CHEMBL2311426, “Synthesis and antibacterial activity of novel water-soluble nocathiacin analogs” (Bioorg Med Chem Lett, 2013).

≈ marks a conversion by molar mass, not a printed value. Bounds are passed on as bounds.

A short description of series [1]: Aqueous solubility of the compound in water containing 5% dextrose at pH 4. The format is physicochemical.
A further series relates to Enterococcus faecalis. The series is described as follows: Antibacterial activity against Enterococcus faecalis C21560 by turbidity method. The format is functional. The following applies: read-out: MIC100.
The subject of series [2] is Staphylococcus aureus. The series is described as follows: Antibacterial activity against Staphylococcus aureus MB2865 infected in iv dosed mouse assessed as >= log10 cfu kidney burden reduction administered bid after 24 hrs. The format is functional.
Series [3] concerns Staphylococcus aureus. The series can be described thus: Antibacterial activity against Staphylococcus aureus MB2865 by turbidity method. The format is functional. The following applies: read-out: MIC100.
A further series relates to Streptococcus pneumoniae. The series is described as follows: Antibacterial activity against Streptococcus pneumoniae CL2883 by turbidity method. The series is classed as functional. The conditions noted are these: read-out: MIC100.
Series [4] concerns Staphylococcus aureus. The series can be described thus: Ratio of vancomycin ED99 to compound ED99 for Staphylococcus aureus MB2865 infected in iv dosed mouse. The format is functional.
The subject of series [5] is Staphylococcus aureus. The series is described as follows: Antibacterial activity against Staphylococcus aureus MB2865 infected in mouse assessed as log kidney burden reduction administered at 4 mg/kg, iv bid after 24 hrs relative to control. The series is classed as functional.

What is called solubility is the dissolved amount per volume that the medium holds. `CO/C(C)=C1/NC(=O)[C@H]([C@@H](C)O)NC(=O)c2csc(n2)-c2cc(O)c(-c3nc(CN)cs3)nc2-c2csc(n2)[C@@H]2COC(=O)c3c4c5c(cccc5n3O)COC(=O)[C@@H](O[C@H]3C[C@](C)(O)[C@H](N(C)C)[C@H](C)O3)[C@@H](OC4)[C@H](NC(=O)c3csc1n3)c1nc(cs1)C(=O)N2.O=C(O)C(F)(F)F` showed a solubility in series [1] above 10000 µg/mL.

As for `CO/C(C)=C1/NC(=O)[C@H]([C@@H](C)O)NC(=O)c2csc(n2)-c2cc(O)c(-c3nc(CNC(=O)CCN4CCOCC4)cs3)nc2-c2csc(n2)[C@@H]2COC(=O)c3c4c5c(cccc5n3O)COC(=O)[C@@H](O[C@H]3C[C@](C)(O)[C@H](N(C)C)[C@H](C)O3)[C@@H](OC4)[C@H](NC(=O)c3csc1n3)c1nc(cs1)C(=O)N2`, the MIC with Enterococcus faecalis worked out at 0.12 µg/mL (≈ 0.0802 µM); in the series with Staphylococcus aureus [3] it was 0.06 µg/mL (≈ 0.0401 µM); with Streptococcus pneumoniae it was 0.0075 µg/mL (≈ 0.00501 µM). The ED99 in the series with Staphylococcus aureus [2] was above 0.5 mg/kg.

With `CO/C(C)=C1/NC(=O)[C@H]([C@@H](C)O)NC(=O)c2csc(n2)-c2cc(O)c(-c3nc(CNC(=O)C(C)NC(N)=O)cs3)nc2-c2csc(n2)[C@@H]2COC(=O)c3c4c5c(cccc5n3O)COC(=O)[C@@H](O[C@H]3C[C@](C)(O)[C@H](N(C)C)[C@H](C)O3)[C@@H](OC4)[C@H](NC(=O)c3csc1n3)c1nc(cs1)C(=O)N2` (stereo not given in full), the MIC stood at 0.25 µg/mL (≈ 0.17 µM) in the series on Enterococcus faecalis, 0.06 µg/mL (≈ 0.0409 µM) in the series on Staphylococcus aureus [3] and 0.0038 µg/mL (≈ 0.00259 µM) with Streptococcus pneumoniae. Further, in the series on Staphylococcus aureus [2], the ED99 worked out at 0.02 mg/kg. For the same compound, the Ratio in the series on Staphylococcus aureus [4] was determined as 200.

On to `CO/C(C)=C1/NC(=O)[C@H]([C@@H](C)O)NC(=O)c2csc(n2)-c2cc(O)c(-c3nc(CNC(=O)CN4CCN(C)CC4)cs3)nc2-c2csc(n2)[C@@H]2COC(=O)c3c4c5c(cccc5n3O)COC(=O)[C@@H](O[C@H]3C[C@](C)(O)[C@H](N(C)C)[C@H](C)O3)[C@@H](OC4)[C@H](NC(=O)c3csc1n3)c1nc(cs1)C(=O)N2`, for which the MIC is 0.09 µg/mL (≈ 0.0602 µM) with Enterococcus faecalis, 0.0375 µg/mL (≈ 0.0251 µM) with Staphylococcus aureus [3] and 0.0007 µg/mL (≈ 0.000468 µM) in the series with Streptococcus pneumoniae. Besides, the ED99 in the series with Staphylococcus aureus [2] was found to be 0.28 mg/kg. Besides, in the series with Staphylococcus aureus [5], the CFU came to 1.08.

Take `CO/C(C)=C1/NC(=O)[C@H]([C@@H](C)O)NC(=O)c2csc(n2)-c2cc(O)c(-c3nc(CNC(=O)CN4CCOCC4)cs3)nc2-c2csc(n2)[C@@H]2COC(=O)c3c4c5c(cccc5n3O)COC(=O)[C@@H](O[C@H]3C[C@](C)(O)[C@H](N(C)C)[C@H](C)O3)[C@@H](OC4)[C@H](NC(=O)c3csc1n3)c1nc(cs1)C(=O)N2`: the figures for the MIC in the series with Enterococcus faecalis, in the series with Staphylococcus aureus [3] and in the series on Streptococcus pneumoniae were 0.015 µg/mL (≈ 0.0101 µM), 0.0075 µg/mL (≈ 0.00506 µM) and 0.00046 µg/mL (≈ 0.00031 µM), respectively. In addition, the ED99 in the series on Staphylococcus aureus [2] is above 0.5 mg/kg.

As for `CO/C(C)=C1/NC(=O)[C@H]([C@@H](C)O)NC(=O)c2csc(n2)-c2cc(O)c(-c3nc(CNC(=O)CN(C)C)cs3)nc2-c2csc(n2)[C@@H]2COC(=O)c3c4c5c(cccc5n3O)COC(=O)[C@@H](O[C@H]3C[C@](C)(O)[C@H](N(C)C)[C@H](C)O3)[C@@H](OC4)[C@H](NC(=O)c3csc1n3)c1nc(cs1)C(=O)N2`, the MIC in the series with Enterococcus faecalis was determined as 0.25 µg/mL (≈ 0.174 µM); in the series with Staphylococcus aureus [3], 0.06 µg/mL (≈ 0.0417 µM); in the series with Streptococcus pneumoniae it was 0.0075 µg/mL (≈ 0.00521 µM). In addition, the ED99 with Staphylococcus aureus [2] was above 0.5 mg/kg.

`CO/C(C)=C1/NC(=O)[C@H]([C@@H](C)O)NC(=O)c2csc(n2)-c2cc(O)c(-c3nc(CNCc4cncnc4)cs3)nc2-c2csc(n2)[C@@H]2COC(=O)c3c4c5c(cccc5n3O)COC(=O)[C@@H](O[C@H]3C[C@](C)(O)[C@H](N(C)C)[C@H](C)O3)[C@@H](OC4)[C@H](NC(=O)c3csc1n3)c1nc(cs1)C(=O)N2`: the MIC in the series on Enterococcus faecalis is 0.03 µg/mL (≈ 0.0207 µM); in the series with Staphylococcus aureus [3] it was 0.0225 µg/mL (≈ 0.0156 µM); in the series with Streptococcus pneumoniae, 0.0007 µg/mL (≈ 0.000484 µM). The ED99 in the series with Staphylococcus aureus [2] was found to be 0.13 mg/kg.

`CO/C(C)=C1/NC(=O)[C@H]([C@@H](C)O)NC(=O)c2csc(n2)-c2cc(O)c(-c3nc(CNCCO)cs3)nc2-c2csc(n2)[C@@H]2COC(=O)c3c4c5c(cccc5n3O)COC(=O)[C@@H](O[C@H]3C[C@](C)(O)[C@H](N(C)C)[C@H](C)O3)[C@@H](OC4)[C@H](NC(=O)c3csc1n3)c1nc(cs1)C(=O)N2`: the MIC was determined as 0.06 µg/mL (≈ 0.0429 µM) in the series with Enterococcus faecalis, 0.03 µg/mL (≈ 0.0215 µM) in the series on Staphylococcus aureus [3] and 0.00046 µg/mL (≈ 0.000329 µM) with Streptococcus pneumoniae. The ED99 in the series with Staphylococcus aureus [2] was found to be 0.32 mg/kg.

Turning to `CO/C(C)=C1/NC(=O)[C@H]([C@@H](C)O)NC(=O)c2csc(n2)-c2cc(O)c(-c3nc(CN(C)C)cs3)nc2-c2csc(n2)[C@@H]2COC(=O)c3c4c5c(cccc5n3O)COC(=O)[C@@H](O[C@H]3C[C@](C)(O)[C@H](N(C)C)[C@H](C)O3)[C@@H](OC4)[C@H](NC(=O)c3csc1n3)c1nc(cs1)C(=O)N2`, the MIC with Enterococcus faecalis amounted to 0.0075 µg/mL (≈ 0.00542 µM); with Staphylococcus aureus [3], 0.03 µg/mL (≈ 0.0217 µM); in the series on Streptococcus pneumoniae, 0.00095 µg/mL (≈ 0.000687 µM). The ED99 with Staphylococcus aureus [2] was above 0.5 mg/kg.

As to `CO/C(C)=C1/NC(=O)[C@H]([C@@H](C)O)NC(=O)c2csc(n2)-c2cc(O)c(-c3nc(CN)cs3)nc2-c2csc(n2)[C@@H]2COC(=O)c3c4c5c(cccc5n3O)COC(=O)[C@@H](O[C@H]3C[C@](C)(O)[C@H](N(C)C)[C@H](C)O3)[C@@H](OC4)[C@H](NC(=O)c3csc1n3)c1nc(cs1)C(=O)N2`, the MIC was 0.06 µg/mL (≈ 0.0443 µM) with Enterococcus faecalis, 0.077 µg/mL (≈ 0.0568 µM) with Staphylococcus aureus [3] and 0.00047 µg/mL (≈ 0.000347 µM) in the series with Streptococcus pneumoniae. Besides, the ED99 in the series with Staphylococcus aureus [2] was above 0.5 mg/kg.

For the compound `CN[C@H](CC(C)C)C(=O)N[C@H]1C(=O)N[C@@H](CC(N)=O)C(=O)N[C@H]2C(=O)N[C@H]3C(=O)N[C@H](C(=O)N[C@H](C(=O)O)c4cc(O)cc(O)c4-c4cc3ccc4O)[C@H](O)c3ccc(c(Cl)c3)Oc3cc2cc(c3O[C@@H]2O[C@H](CO)[C@@H](O)[C@H](O)[C@H]2O[C@H]2C[C@](C)(N)[C@H](O)[C@H](C)O2)Oc2ccc(cc2Cl)[C@H]1O` [VANCOMYCIN], in the series with Staphylococcus aureus [2], the ED99 was determined as 0.17 mg/kg.
